Results: patent publication US9718760B2, “Plasminogen activator inhibitor-1 inhibitors and methods of use thereof” (THE REGENTS OF THE UNIVERSITY OF MICHIGAN, priority 2012, dated 2017)
pIC50: −log10 of the molar value. Values joined by “and” are separate entries in the source; they are usually repeats but may differ in a detail not shown here. Identical values can stand only once.

Tests used:
[1] = molecular target: T1, recombinant active human PAI-1 (Homo sapiens (Human), UniProt P05121); test: Fluorometric PAI-1/uPA IC50 plate assay at pH 7.8; type: biochemical; conditions: physiologic buffer
T1 sequence (P05121 24-402): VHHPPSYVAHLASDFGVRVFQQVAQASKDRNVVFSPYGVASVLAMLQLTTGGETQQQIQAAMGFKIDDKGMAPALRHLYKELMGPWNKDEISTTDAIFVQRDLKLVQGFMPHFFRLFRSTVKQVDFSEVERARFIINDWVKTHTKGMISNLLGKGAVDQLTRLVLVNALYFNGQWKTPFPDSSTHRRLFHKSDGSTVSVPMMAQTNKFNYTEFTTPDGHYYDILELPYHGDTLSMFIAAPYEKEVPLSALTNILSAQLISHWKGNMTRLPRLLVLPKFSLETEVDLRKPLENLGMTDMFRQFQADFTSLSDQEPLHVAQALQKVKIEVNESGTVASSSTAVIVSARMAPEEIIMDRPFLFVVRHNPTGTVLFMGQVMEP
Protocol: To determine the efficacy of various synthesized compounds as PAI-1 inhibitors at pH 7.8, additional fluorometric plate assays were carried out to measure the half maximal inhibitory concentration (IC50) of these compounds on recombinant active human PAI-1 in vitro.
PAI-1 inhibitor compounds were dissolved in DMSO to a final concentration of (10-50 mM), depending upon solubility. […] Fluorescence, as a measure of the rate of AMC release by uPA, was read at the following wavelengths; excitation 370 nm, emission 440 nm. Controls included PAI-1 and uPA in the absence of compound and uPA alone. Percent PAI-1 inhibition was calculated using the following formula: [(uPA alone-uPA/PAI-1+ compound)/(uPA alone-PAI-1/uPA)]*100%. The IC50 was calculated using Graphit (IC50 0-100%).

[2] = molecular target: T1, recombinant active human PAI-1; test: Fluorometric PAI-1/uPA IC50 plate assay at pH 7.4; type: biochemical
Protocol: To determine the efficacy of various synthesized compounds as PAI-1 inhibitors, a fluorometric plate assay was carried out to measure the half maximal inhibitory concentration (IC50) of these compounds on recombinant active human PAI-1 in vitro. An IC50 is a measure of the effectiveness of a compound in inhibiting biological or biochemical function. Stated another way, IC50 represents the concentration of a drug that is required for 50% inhibition in vitro.
PAI-1 inhibitor compounds were dissolved in DMSO to a final concentration of (10-50 mM), depending upon solubility. Compounds were then diluted in physiologic buffer (40 mM HEPES, 100 mM NaCl, 0.05% Tween-20, pH7.4) containing 10% DMSO and a dilution series (from 0 to 1000 uM depending on solubility) was prepared. 80 μL of compound was added per well to a 96-well black, opaque microplate in duplicate. 10 μL of 20 nM Recombinant active human PAI-1 (Molecular Innovations) in physiologic buffer (40 mM HEPES, 100 mM NaCl, 0.05% Tween-20, 10% DMSO, pH 7.4), or […] physiologic buffer with 10% human plasma, was added and the mixture was agitated for 15 minutes at room temperature. 10 μL of 25 nM uPA (Rheotromb®) was added to each reaction well and the plate was agitated for an additional 30 minutes at room temperature. Tripeptide aminomethylcoumarin Gly-Gly-Arg-AMC (Calbiochem) fluorogenic substrate (100 μL of 100 μM) was then added and residual uPA activity was determined based upon cleavage of this substrate. The rate of AMC release by uPA (fluorescence) was measured at an excitation wavelength of 370 nm and an emission wavelength of 440 nm. Controls included PAI-1 and uPA in the absence of compound and uPA alone. Percent PAI-1 inhibition was calculated using the following formula: [(uPA alone-uPA/PAI-1+ compound)/(uPA alone-PAI-1/uPA)]*100%. The IC50 was calculated using Graphit (IC50 0-100%).

[3] = physiologic buffer (40 mM HEPES, 100 mM NaCl, 0.05% Tween-20, 10% DMSO), read-out: PAI-1/uPA IC50 in buffer
[4] = physiologic buffer with 1.5% BSA (15 mg/mL), read-out: PAI-1/uPA IC50 in 1.5% BSA buffer
[5] = physiologic buffer with 10% human plasma, read-out: PAI-1/uPA IC50 in 10% plasma buffer

SMILES | pIC50 [1] | other results
O=C1S/C(=C\c2ccc(O)c(O)c2)C(=O)N1Cc1ccc(Br)cc1 [C203] | 4.77 | 
CCCCCCCCN(S(=O)(=O)c1cccc(O)c1)S(=O)(=O)c1ccc(O)c(O)c1 [C292] | 5.31 | pIC50 [2, 3]: 4.17
CCCCCCCCN(S(=O)(=O)c1ccc(O)cc1)S(=O)(=O)c1cccc(O)c1 [C294] | 3.92 | pIC50 [2, 3]: 3.63
CCCCCCCCN(Cc1cccc(C(F)(F)F)c1)S(=O)(=O)c1ccc(O)c(O)c1 [C179] | 5.62 | 
O=S(=O)(NCCc1ccc(O)c(O)c1)c1ccccc1 [C210] | 3.72 | 
CCCCCCCCN(Cc1cccc(Cl)c1)S(=O)(=O)c1ccc(O)c(O)c1 [C177] | 5.29 | 
CCCCCCCCN(Cc1cc(Cl)c(O)c(Cl)c1)S(=O)(=O)c1ccc(O)c(O)c1 [C172] | 5.70 | 
CCCCCCCCN(CC(O)c1ccccc1)S(=O)(=O)c1ccc(O)c(O)c1 (stereo not shown) [C175] | 5.17 | 
O=S(=O)(c1ccc(O)c(O)c1)N1CCc2ccccc21 [C205] | 5.30 | 
CCCCCCCCN(CCCCCCCC)S(=O)(=O)c1ccc(O)c(O)c1 [C170] | 5.26 | 
CCCCCCN(CCCCCC)S(=O)(=O)c1ccc(O)c(O)c1 [C171] | 5.78 | 
O=C(O)[C@@H](Cc1ccccc1)NS(=O)(=O)c1ccc(O)c(O)c1 [C275] | 4.52 | 
CC(C)(C)n1nc(C2CC2)nc1Cc1ccc(O)c(O)c1 [C221] | 2.79 | 
CCCCCCc1ccc(NS(=O)(=O)c2ccc(O)c(O)c2)cc1 [C187] | 6.04 | 
O=C1S/C(=C\c2ccc(O)c(O)c2)C(=O)N1Cc1cccc(Br)c1 [C206, (Z)-3-(3-bromobenzyl)-5-(3,4-dihydroxybenzylidene)thiazolidine-2,4-dione] | 5.30 | 
O=S(=O)(Nc1ccc(-c2cccc(F)c2)cc1)c1ccc(O)c(O)c1 [C190] | 5.01 | 
CCCCCCCCN(S(=O)(=O)c1ccc(O)cc1)S(=O)(=O)c1ccc(O)c(O)c1 [C224] | 5.36 | 
CCCCCCCN(S(=O)(=O)c1ccc(O)c(O)c1)S(=O)(=O)c1ccc(O)c(O)c1 [C182] | 7.48 | 
CCCCCCCCN(CCN(CCCCCCCC)S(=O)(=O)c1ccc(O)c(O)c1)S(=O)(=O)c1ccc(O)c(O)c1 [C176] | 6.21 | 
O=C(O)CCCCCNS(=O)(=O)c1ccc(O)c(O)c1 [C271] | 5.74 | 
O=C(O)[C@H](NS(=O)(=O)c1ccc(O)c(O)c1)c1ccccc1 [C274] | 4.13 | 
CCCCCCCCN(S(=O)(=O)c1ccc(CCCCC)cc1)S(=O)(=O)c1ccc(O)c(O)c1 [C191] | 5.89 | 
O=C(OCC(CNS(=O)(=O)c1cccc(C(F)(F)F)c1)OC(=O)c1ccc(O)c(O)c1)c1ccc(O)c(O)c1 (stereo not shown) [C204] | 7.46 | 
CCCCCCCCN(CCCCCC)S(=O)(=O)c1ccc(O)c(O)c1 [C180] | 5.87 | 
CCCCCCCCCCN(CCN(CCCCCCCCCC)S(=O)(=O)c1ccc(O)c(O)c1)S(=O)(=O)c1ccc(O)c(O)c1 [C168] | 5.70 | 

SMILES | pIC50 [1] | other results
CC(C)(C)n1nc(-c2ccccc2)nc1-c1ccc(O)c(O)c1 [C201, 4-(1-(tert-butyl)-3-phenyl-1H-1,2,4-triazol-5-yl)benzene-1,2-diol] | 3.74 | 
O=C1S/C(=C\c2ccc(O)c(O)c2)C(=O)N1Cc1cccc(-c2ccc(OC(F)(F)F)cc2)c1 [C207, (Z)-5-(3,4-dihydroxybenzylidene)-3-((4′-(trifluoromethoxy)-[1,1′-biphenyl]-3-yl)methyl)thiazolidine-2,4-dione] | 4.77 | 
CCCCCCc1ccc(N(S(=O)(=O)c2ccc(O)c(O)c2)S(=O)(=O)c2ccc(O)c(O)c2)cc1 [C188] | 6.92 | 
O=S(=O)(c1ccccc1)N(CCc1ccc(O)c(O)c1)S(=O)(=O)c1ccc(O)c(O)c1 [C197] | 6.76 | 
CCCCCCCCCCN(CCN(C)S(=O)(=O)c1ccc(O)c(O)c1)S(=O)(=O)c1ccc(O)c(O)c1 [C196] | 6.35 | 
O=S(=O)(NCCc1ccccc1)c1ccc(O)c(O)c1 [C233] | 4.13 | 
O=C1S/C(=C\c2ccc(O)c(O)c2)C(=O)N1Cc1ccccc1 [C199] | 5.27 | 
CCCCCc1nc(Cc2ccc(O)c(O)c2)n(C(C)(C)C)n1 [C220] | 3.93 | 
NNC(=O)C(=O)NCc1cccc(Cl)c1 [C266] |  | pIC50 [2, 3]: 3.25 and 3.26; pIC50 [2, 4]: 3.90; pIC50 [2, 5]: 3.66
CCCCCCCCCN(S(=O)(=O)c1ccc(O)c(O)c1)S(=O)(=O)c1ccc(O)c(O)c1 [C183] | 6.74 | 
Cc1oncc1C(=O)NCc1ccc(Cl)c(C(F)(F)F)c1 [C279] |  | pIC50 [2, 3]: 3.27 and 3.23; pIC50 [2, 4]: 3.26 and 3.30; pIC50 [2, 5]: 3.17
NNC(=O)C(=O)NCc1ccccc1F [C263] |  | pIC50 [2, 3]: 2.55; pIC50 [2, 4]: 2.77; pIC50 [2, 5]: 2.87
O=C(NCc1ccc(Cl)cc1)c1ccc(O)c(O)c1 [C361] |  | pIC50 [2, 3]: 3.63; pIC50 [2, 4]: 2.70; pIC50 [2, 5]: 3.07
CON(C)C(=O)C(=O)NCc1ccc(Cl)c(C(F)(F)F)c1 [C328] |  | pIC50 [2, 3]: 3.15; pIC50 [2, 4]: 3.46; pIC50 [2, 5]: 3.50
NNC(=O)C(=O)NCc1ccc(C(F)(F)F)cc1 [C296] |  | pIC50 [2, 3]: 3.95; pIC50 [2, 4]: 4.16; pIC50 [2, 5]: 4.19
CCCCCCc1ccc(N(S(=O)(=O)c2ccc(CCC)cc2)S(=O)(=O)c2ccc(O)c(O)c2)cc1 [C189] | 5.64 | 
COc1ccc(CCNC(=O)C(=O)NN)cc1OC [C246] |  | pIC50 [2, 3]: 2.59
O=C(O)C(=O)NCc1ccc(Cl)c(C(F)(F)F)c1 [C309, 2-((4-chloro-3-(trifluoromethyl)benzyl)amino)-2-oxoacetic acid] |  | pIC50 [2, 3]: 2.92
NNC(=O)C(=O)NCc1cccc(F)c1 [C264] |  | pIC50 [2, 3]: 2.67; pIC50 [2, 4]: 2.93; pIC50 [2, 5]: 2.90
NNC(=O)C(=O)NCc1cc(F)cc(F)c1 [C340] |  | pIC50 [2, 3]: 3.47; pIC50 [2, 4]: 3.60; pIC50 [2, 5]: 3.57
Cc1cc(C(=O)NCc2ccc(Cl)c(C(F)(F)F)c2)no1 [C286] |  | pIC50 [2, 3]: 3.24
O=C(NO)NCc1ccc(Cl)c(C(F)(F)F)c1 [C284, 1-(4-chloro-3-(trifluoromethyl)benzyl)-3-hydroxyurea] |  | pIC50 [2, 3]: 2.61
NNC(=O)C(=O)NCc1ccc(F)cc1 [C248] |  | pIC50 [2, 3]: 2.92 and 2.88; pIC50 [2, 4]: 3.19; pIC50 [2, 5]: 3.32
CC(C)(C)n1nc(-c2ccccc2)nc1Cc1ccc(O)c(O)c1 [C208] | 4.11 | 
O=C(CCc1ccc(O)c(O)c1)NCc1ccc(C(F)(F)F)cc1 [C345] |  | pIC50 [2, 3]: 2.83; pIC50 [2, 4]: 3.17; pIC50 [2, 5]: 3.27

Second part, led by results:

pIC50 [1] | SMILES | other results
3.26 | O=C(Nc1ccccc1)[C@@H]1CCCN1S(=O)(=O)c1ccc(O)c(O)c1 [C193] | 
3.76 | O=C(OCCOC(=O)c1ccc(O)c(O)c1)c1cc(O)cc(O)c1 [C236] | 
6.23 | CCCCCCCN(CCN(CCCCCCC)S(=O)(=O)c1ccc(O)c(O)c1)S(=O)(=O)c1ccc(O)c(O)c1 [C184] | 
6.38 | CCCCCCCCCN(CCN(CCCCCCCCC)S(=O)(=O)c1ccc(O)c(O)c1)S(=O)(=O)c1ccc(O)c(O)c1 [C185] | 
4.79 | O=C(O)[C@H](Cc1ccccc1)NS(=O)(=O)c1ccc(O)c(O)c1 [C272] | 
4.88 | O=S(=O)(NCCCc1ccccc1)c1ccc(O)c(O)c1 [C232] | 
3.63 | CC(C)(C)n1nc(-c2ccc(O)cc2)nc1Cc1ccc(O)c(O)c1 [C222] | 
5.16 | O=S(=O)(c1ccc(O)c(O)c1)N1CCC[C@H]1CCc1ccccc1 [C186] | 
3.90 | CCCCCc1nc(Cc2ccc(O)c(O)c2)n(C(C)(C)C)n1 [C223] | 
4.53 | NC(=O)[C@H](Cc1ccccc1)NS(=O)(=O)c1ccc(O)c(O)c1 [C270] | 
4.25 | O=C(O)[C@@H](NS(=O)(=O)c1ccc(O)c(O)c1)c1ccccc1 [C273] | 
4.72 | CCCCCCCCN(S(=O)(=O)c1ccc(-c2ccc(OC(F)(F)F)cc2)cc1)S(=O)(=O)c1ccc(O)c(O)c1 [C173] | 
6.04 | CCCCCCCCCCCCc1ccc(N(S(=O)(=O)c2ccc(O)c(O)c2)S(=O)(=O)c2ccc(O)c(O)c2)cc1 [C195] | 
7.29 | O=S(=O)(NCCc1ccc(O)c(O)c1)c1ccc(O)c(O)c1 [C198] | 
3.18 | O=C(O)CCCCNS(=O)(=O)c1ccc(O)c(O)c1 [C249] | 
4.23 | CCCCN(C)C(=O)CSc1ccc(O)c(O)c1 [C200] | 
